For data set [1], the system named is LX-2 cell line. As to the method:
(§1) Specifically, while gradually increasing the amounts of cromolyn and ionomycin in an independent cell culture medium, the amount of LDH released into the above culture medium was measured, and the experiment was conducted by using a LDH cytotoxicity assay kit (Cayman Chemical, USA) according to the method provided by the manufacturer. First, the cells were grown in DMEM (Dulbecco's Modified Eagle Medium), to which 10% of heat inactivated fetal bovine serum and 1% of penicillin and streptomycin were added, at 37° C. and 5% CO2. Then, the above cells were seeded in a 96-well plate at a density of 2×10^4/well. Cromolyn and ionomycin were added thereto in increasing amounts. After 48 hours, 100 μL of the supernatant from each well was transferred to the new plates, 100 μL of the reaction solution was added to each well, the plate was incubated with gentle shaking on an orbital shaker for 30 minutes at the room temperature, and then the absorbance was measured at 490 nm with a plate reader.

Data set [2] concerns HSC-T6 cell line. On the procedure:
as §1

The subject of a further data set is LX2 cell line. Kind of data set: MTT assay, cell proliferation. The data set is classed as cell-based. Conditions: for effect on proliferation at low level: LX2, 0.1 μM; for proliferation activity: LX2, increasing levels, compared to untreated control. On the procedure: (§2) To confirm the proliferation activity on hepatic stellate cells, a MTT (3-(4,5-dimethylthiazol-2-yl)-2,5-diphenyltetrazolium bromide) assay was performed, and the HSC-T6 and LX2 cell lines obtained from <Example 1> above were used as hepatic stellate cells.
(§3) Specifically, the MTT assay was performed by seeding the cell suspensions of each cell onto a 96-well plate at a density of 5×10^4 cells/well. Then, the MIT stock solution (5 mg/mL) in which MTT was dissolved in PBS (phosphate-buffered saline, pH 7.2) was prepared, and 15 μL of the MTT solution was added to each well after filtration. After culturing for 4 hours at 37° C. and 5% CO2, the reaction was terminated by adding 185 μL of solubilization solution to each well, and then the cell viability was measured at an absorbance of 620 nm using an ELISA (enzyme-linked immunosorbent assay) reader. Furthermore, cell viability was measured by calculating the ratio of absorbance of the cells treated/untreated with the candidate agents.

Data set [3] relates to HSC-T6 cell line. Kind of data set: MTT assay, cell proliferation. The data set is classed as cell-based. Conditions: for effect on proliferation at low level: HSC-T6, 0.1 μM; for proliferation activity: HSC-T6, increasing levels, compared to untreated control. On the procedure: as §2, §3
(Formazan colour is commonly taken as a measure of viable cells.)

The test system of data set [4] is LX-2 cell line. Kind of data set: TGF-β production by ELISA. It counts as cell-based. Conditions: LX-2, different concentrations. As to the method:
(§4) To confirm whether cromolyn inhibits the production of TGF-β and the accumulation of collagen, which are known as the major secretion marker of activated HSCs, LX-2 and HCT-T6 cell lines were analyzed by ELISA.
In general terms: ELISA stands for enzyme-linked immunosorbent assay.

Data set [5] relates to HSC-T6 cell line. Kind of data set: TGF-β production by ELISA. It counts as cell-based. Conditions: HSC-T6, different concentrations. On the procedure:
as §4

The test system of data set [6] is primary hepatocytes. Kind of data set: wound assay, cell motility. The data set is classed as cell-based, mouse. As to the method:
(§5) Further, the experiment on hepatocytes was conducted by isolating the primary hepatocyte from the liver of a male C57BL6 mouse of around 6 weeks old.
The effect of cromolyn on restoration in hepatocytes was verified. […] Therefore, the present inventors confirmed the motility of primary hepatocytes by treating cromolyn in the presence and absence of TGF-β, which induces EMT.
(§6) Specifically, cell motility according to treatment with cromolyn was analyzed by using the known wound assay in the presence and absence of TGF-β (2 ng/mL), and the healing distance of the wound was measured by […]. Further, after treating with TGF-β and cromolyn, changes in the E-cadherin expression was verified, which was confirmed by treating primary hepatocytes with TGF-β (Carl Bio Chem, USA) and then conducting Western Blots using the antibody against E-cadherin (H-180) (Santa Cruz, USA). In addition, tubulin was used as the loading control.

Data set [7] has as its system E-cadherin in primary hepatocytes. Kind of data set: E-cadherin expression by Western Blots. It counts as cell-based, mouse. Conditions: primary hepatocytes treated with TGF-β. On the procedure:
as §5, §6
On the technique in general: A western blot detects proteins with antibodies after separation by electrophoresis.

Data set [8] has as its system LX-2 cell line. Kind of data set: Sirius Red total collagen detection. It counts as cell-based. Conditions: LX-2, increasing level, 48 hours. On the procedure: (§7) To confirm whether cromolyn inhibits the production of TGF-β and the accumulation of collagen, which are known as the major secretion marker of activated HSCs, LX-2 and HCT-T6 cell lines were analyzed by ELISA. Specifically, collagen was detected by using the Sirius Red Total Collagen Detection Kit (Chondrex, USA). The suspended cells were seeded in a 24-well plate at a density of 1×10^4 cells/well, and treated with various amounts of cromolyn for 48 hours. Then, the diluted solutions or standard samples were added to 1.5-mL centrifuge tubes in duplicate. Subsequently, each tube was incubated for 20 minutes at room temperature together with 500 μl of the Sirius Red solution. The supernatant was removed, the tubes were washed twice, and 200 μL of the final supernatant was transferred to a 96-well plate. The optical density was measured at 510-550 nm.

The test system of data set [9] is HSC-T6 cell line. Kind of data set: Sirius Red total collagen detection. The data set is classed as cell-based. Conditions: HSC-T6, increasing level, 48 hours. As to the method:
as §7

Data set [10] deals with primary hepatocytes. Kind of data set: SA-β-gal (Senescence β-galactosidase) staining. The data set is classed as cell-based, mouse. Conditions: three days in vitro culture. As to the method: as §5
Since senescence is a typical phenomenon of fibrosis, the anti-senescence effect of cromolyn on hepatocytes was confirmed by using β-galactosidase staining, which is a senescence index.
SA-β-gal (Senescence β-galactosidase) staining was performed by using the Senescence β-Galactosidase Staining Kit (Biovision, USA) according to the method provided by the manufacturer. Specifically, after washing with PBS, the cells were fixed by 2% formaldehyde and 0.2% glutaraldehyde in PBS for 15 minutes at room temperature. The fixed cells were washed with PBS, and incubated together with X-gal staining solution for 24 hours at 37° C. The cells were visualized, and photographs were taken with the Zeiss PALM laser capture microdissection microscope (Zeiss, Germany).

Where two headings read alike, the source gives them in different places.

Turning to `C[C@H](CCC(=O)O)C[C@H](C)C[C@H](C)C(=O)/C=C(\O)[C@H](C)C[C@H](C)C/C=C/[C@@H](C)[C@@H](O)[C@@H](C)[C@@H](O)C[C@@H]1CC[C@@](C)([C@H]2CC[C@@](C)([C@@H](C)O)O2)O1` [ionomycin], the “cytotoxicity (LDH release)” value in the data set with LX-2 cell line [1] (LX-2, increasing amounts, 48 hours (FIG. 2D)) is on record as “induce cell death in a concentration dependent manner”; with HSC-T6 cell line [2] (HSC-T6, increasing amounts, 48 hours (FIG. 2C)), “induce cell death in a concentration dependent manner”. Moreover, the “effect on proliferation at low level” value is given as “anti-proliferation effect was confirmed” with LX2 cell line and “did not show a significant effect” in the data set with HSC-T6 cell line [3]. In addition, the proliferation activity result in the data set on LX2 cell line and in the data set with HSC-T6 cell line [3] was “decrease” in each case.

For the compound `O=C(O)c1cc(=O)c2c(OCC(O)COc3cccc4oc(C(=O)O)cc(=O)c34)cccc2o1` [cromolyn, cromoglicic acid], the “production of TGF-β” value in the data set on LX-2 cell line [4] and with HSC-T6 cell line [5] was “inhibit the production of TGF-β in a concentration-dependent manner” throughout. The “cytotoxicity (LDH release)” value is on record as “no cytotoxicity except at the high level (10 μM)” with LX-2 cell line [1] (human, 48 h) and “no cytotoxicity except at the high level (10 μM)” in the data set on HSC-T6 cell line [2] (rat, 48 h). Also, in the data set on primary hepatocytes [6] (absence of TGF-β, compared to untreated control), the motility of hepatocytes entry is “did not show a significant difference”. Besides, the “inhibition of migration activity of hepatocytes in terms of migration distance” value in the data set on primary hepatocytes [6] (presence of TGF-β (2 ng/mL), 48 hours) came to 15%. The “expression of E-cadherin” value in [7] is on record as “significantly inhibit the decrease in the expression of E-cadherin in a concentration-dependent manner”. The released collagen result in the data set on LX-2 cell line [8] and in the data set on HSC-T6 cell line [9] was “significantly decreases” in each case. Also, the “effect on proliferation at low level” value in the data set on LX2 cell line was “anti-proliferation effect was confirmed”; with HSC-T6 cell line [3], “did not show a significant effect”. The proliferation activity result in the data set on LX2 cell line and in the data set on HSC-T6 cell line [3] was “decrease” each time. In addition, the “number of β-galactosidase-positive cells” value with primary hepatocytes [10] is given as “decrease in a concentration-dependent manner”.

The record behind these values is patent publication US11219613B2, “Pharmaceutical composition for preventing and treating liver diseases, containing, as active ingredient, cromolyn or pharmaceutically acceptable salt thereof” (ONCOCROSS CO., LTD., priority 2015, dated 2022).
